Reference: ChEMBL document CHEMBL1201862, “PubChem BioAssay data set” (2004)
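Grown in 96-well plates, cells were treated for 48 hours with each compound at five concentrations. Insufficient inhibition: endpoint recorded as highest concentration tested. Abbreviation: GI50, concentration required for 50% inhibition of growth.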 Calls of active or inactive are those of the source. Cut-off read from the data, not from the text of the source: active = GI50 up to about 1.1 µM and inactive = higher.

Key:
Test in all cases: DTP human tumour cell line panel, 48 h
NCI-H460 = system: NCI-H460
NCI-H226 = system: NCI-H226
LOX IMVI = system: LOX IMVI
OVCAR-8 = system: OVCAR-8
CCRF-CEM = system: CCRF-CEM
OVCAR-4 = system: OVCAR-4
MDA-MB-435 = system: MDA-MB-435
Hs-578T = system: Hs-578T
NCI/ADR-RES = system: NCI/ADR-RES
KM12 = system: KM12
786-0 = system: 786-0
A549 = system: A549
HCT-15 = system: HCT-15
BT-549 = system: BT-549
SNB-75 = system: SNB-75
SN12C = system: SN12C
EKVX = system: EKVX
SF-295 = system: SF-295
MDA-MB-231 = system: MDA-MB-231
HL-60 = system: HL-60
PC-3 = system: PC-3
TK-10 = system: TK-10
SF-539 = system: SF-539
SK-MEL-2 = system: SK-MEL-2
MCF7 = system: MCF7
ACHN = system: ACHN
U-251 = system: U-251
CAKI-1 = system: CAKI-1
HCT-116 = system: HCT-116
OVCAR-5 = system: OVCAR-5
Malme-3M = system: Malme-3M
UACC-257 = system: UACC-257
OVCAR-3 = system: OVCAR-3
COLO 205 = system: COLO 205
SK-MEL-5 = system: SK-MEL-5
SNB-19 = system: SNB-19
K562 = system: K562
HOP-62 = system: HOP-62
HT-29 = system: HT-29
RPMI-8226 = system: RPMI-8226
SR = system: SR
IGROV-1 = system: IGROV-1
SW-620 = system: SW-620
DU-145 = system: DU-145
MDA-N = system: MDA-N
HOP-92 = system: HOP-92
SK-OV-3 = system: SK-OV-3
M14 = system: M14
SF-268 = system: SF-268
NCI-H23 = system: NCI-H23
MOLT-4 = system: MOLT-4
NCI-H522 = system: NCI-H522
UACC-62 = system: UACC-62
A498 = system: A498
HCC 2998 = system: HCC 2998
RXF 393 = system: RXF 393
UO-31 = system: UO-31
SK-MEL-28 = system: SK-MEL-28
T47D = system: T47D

Structure (SMILES): CC[C@H](NC1=C(Cl)C(=O)c2c(O)ccc(O)c2C1=O)C(=O)OC
- GI50 (NCI-H460): > 10 µM (inactive)
- GI50 (NCI-H226): > 10 µM (inactive)
- GI50 (LOX IMVI): 3.64 µM (inactive)
- GI50 (OVCAR-8): 4.63 µM (inactive)
- GI50 (CCRF-CEM): 3.5 µM (inactive)
- GI50 (OVCAR-4): 7.71 µM (inactive)
- GI50 (MDA-MB-435): 3.26 µM (inactive)
- GI50 (Hs-578T): > 10 µM (inactive)
- GI50 (NCI/ADR-RES): 7.28 µM (inactive)
- GI50 (KM12): > 10 µM (inactive)
- GI50 (786-0): 4.69 µM (inactive)
- GI50 (A549): > 10 µM (inactive)
- GI50 (HCT-15): 5.33 µM
- GI50 (BT-549): > 10 µM (inactive)
- GI50 (SNB-75): > 10 µM (inactive)
- GI50 (SN12C): 3.05 µM (inactive)
- GI50 (EKVX): > 10 µM (inactive)
- GI50 (SF-295): > 10 µM (inactive)
- GI50 (MDA-MB-231): 3.33 µM (inactive)
- GI50 (HL-60): 3.79 µM (inactive)
- GI50 (PC-3): 6.9 µM (inactive)
- GI50 (TK-10): > 10 µM (inactive)
- GI50 (SF-539): 3.44 µM (inactive)
- GI50 (SK-MEL-2): > 10 µM (inactive)
- GI50 (MCF7): 3.94 µM (inactive)
- GI50 (ACHN): > 10 µM (inactive)
- GI50 (U-251): 6.12 µM (inactive)
- GI50 (CAKI-1): > 10 µM (inactive)
- GI50 (HCT-116): 2.34 µM (inactive)
- GI50 (OVCAR-5): > 10 µM (inactive)
- GI50 (Malme-3M): 4.28 µM (inactive)
- GI50 (UACC-257): 3.66 µM (inactive)
- GI50 (OVCAR-3): 4.19 µM (inactive)
- GI50 (COLO 205): 3.58 µM (inactive)
- GI50 (SK-MEL-5): 6.53 µM (inactive)
- GI50 (SNB-19): > 10 µM (inactive)
- GI50 (K562): 3.94 µM (inactive)
- GI50 (HOP-62): > 10 µM (inactive)
- GI50 (HT-29): 2.78 µM (inactive)
- GI50 (RPMI-8226): > 10 µM (inactive)
- GI50 (SR): 1.64 µM (inactive)
- GI50 (IGROV-1): > 10 µM (inactive)
- GI50 (SW-620): 5.79 µM (inactive)
- GI50 (DU-145): > 10 µM (inactive)
- GI50 (MDA-N): 6.55 µM (inactive)
- GI50 (HOP-92): > 10 µM (inactive)
- GI50 (SK-OV-3): > 10 µM (inactive)
- GI50 (M14): 3.72 µM (inactive)
- GI50 (SF-268): 4.13 µM (inactive)
- GI50 (NCI-H23): > 10 µM (inactive)
- GI50 (MOLT-4): 2.6 µM (inactive)
- GI50 (NCI-H522): 3.53 µM (inactive)
- GI50 (UACC-62): > 10 µM (inactive)

Structure (SMILES): COc1ccc(NC(C)=O)cc1N1C(=O)/C(=C\c2cccc(Oc3ccccc3)c2)S(=O)(=O)C1c1ccccc1 (stereo not given)
- GI50 (NCI-H460): 74.1 µM (inactive)
- GI50 (NCI-H226): > 100 µM (inactive)
- GI50 (A498): > 100 µM (inactive)
- GI50 (LOX IMVI): 26.9 µM (inactive)
- GI50 (OVCAR-8): 35.1 µM (inactive)
- GI50 (CCRF-CEM): 16.1 µM (inactive)
- GI50 (OVCAR-4): 16.1 µM (inactive)
- GI50 (MDA-MB-435): 33.8 µM (inactive)
- GI50 (HCC 2998): > 100 µM (inactive)
- GI50 (NCI/ADR-RES): 27.9 µM (inactive)
- GI50 (KM12): 59.2 µM (inactive)
- GI50 (786-0): 32.2 µM (inactive)
- GI50 (RXF 393): 54.8 µM (inactive)
- GI50 (A549): 62.8 µM (inactive)
- GI50 (HCT-15): 39 µM
- GI50 (BT-549): 53.3 µM (inactive)
- GI50 (SNB-75): 19 µM (inactive)
- GI50 (SN12C): 24.2 µM (inactive)
- GI50 (EKVX): 41.6 µM (inactive)
- GI50 (SF-295): 53.1 µM (inactive)
- GI50 (MDA-MB-231): 49 µM (inactive)
- GI50 (HL-60): 20.4 µM (inactive)
- GI50 (PC-3): 36.6 µM (inactive)
- GI50 (TK-10): > 100 µM (inactive)
- GI50 (SF-539): 20.7 µM (inactive)
- GI50 (SK-MEL-2): 69.5 µM (inactive)
- GI50 (MCF7): 25.9 µM (inactive)
- GI50 (ACHN): 39.4 µM (inactive)
- GI50 (UO-31): 18.9 µM (inactive)
- GI50 (U-251): 32.7 µM (inactive)
- GI50 (CAKI-1): 16.6 µM (inactive)
- GI50 (HCT-116): 17.4 µM (inactive)
- GI50 (OVCAR-5): > 100 µM (inactive)
- GI50 (Malme-3M): 70.1 µM (inactive)
- GI50 (UACC-257): 49.3 µM (inactive)
- GI50 (OVCAR-3): 28.5 µM (inactive)
- GI50 (COLO 205): 58.2 µM (inactive)
- GI50 (SK-MEL-5): 35.3 µM (inactive)
- GI50 (SNB-19): 46.1 µM (inactive)
- GI50 (K562): 22.8 µM (inactive)
- GI50 (HOP-62): 71.6 µM (inactive)
- GI50 (HT-29): 18.7 µM (inactive)
- GI50 (RPMI-8226): 22.3 µM (inactive)
- GI50 (SR): 4.21 µM (inactive)
- GI50 (IGROV-1): 34.5 µM (inactive)
- GI50 (SW-620): 28.4 µM (inactive)
- GI50 (DU-145): 39 µM (inactive)
- GI50 (MDA-N): 21 µM (inactive)
- GI50 (SK-MEL-28): 43.1 µM (inactive)
- GI50 (HOP-92): 25 µM (inactive)
- GI50 (SK-OV-3): > 100 µM (inactive)
- GI50 (M14): 30.1 µM (inactive)
- GI50 (T47D): 18.5 µM (inactive)
- GI50 (NCI-H23): 60.3 µM (inactive)
- GI50 (MOLT-4): 16.9 µM (inactive)
- GI50 (NCI-H522): 41.1 µM (inactive)
- GI50 (UACC-62): 58.7 µM (inactive)
